Measurements as given in EP1689759B1, “METHOD FOR PRODUCING PURE DISODIUM PAMIDRONATE” (Mustafa Nevzat Ilac Sanayii A.S., priority 2003, dated 2005).
“And” between values parts separate entries of the source, which are not always exact repeats. Equal values may be shown once. Values belong to the molecule of their own block, whether it stands above or below them.

Key:
[1] = Storage stability at normal pressure over 1 week under ICH conditions (water content by KF); type: physicochemical
Protocol: (§1) These investigations were carried out in a HERAEUS vacuum drying oven of a volume of 53 liters, at a relative humidity (RH) of less than 1 %. Investigations of storage stability at normal pressure were carried out over a period of 1 week, in compliance with the internationally accepted standards about storage stability test conditions for pharmaceuticals as defined in ICH (International Conference on Harmonization of Technical Requirements for Registration of Pharmaceuticals for Human Use), at 25°C / 60 % RH for longterm stability condition, 30°C / […] for intermediate term stability condition and 40°C / 75 % RH for accelerated stability condition.
Table 1. Water content (%, KF) of 3 lots of disodium pamidronate after storage for 1 week

[2] = Storage at room temperature at reduced pressure in vacuum drying oven (water content by KF); type: physicochemical; settings: for water by KF method: room temperature, reduced pressure (20 millibar), RH less than 1 %
Protocol: as §1

[3] = from 1 week under the conditions of 24°C, 50 % RH; water contents 24,41 %; cited from earlier work

Compound: NCCC(O)(P(=O)([O-])O)P(=O)([O-])O.O.O.O.O.O.[Na+].[Na+] [5 hydrates]
loss of water contents on storage [3]: a part of the water contents (24,41 %) is lost

Compound: NCCC(O)(P(=O)([O-])O)P(=O)([O-])O.O.O.O.O.O.[Na+].[Na+] [Lot 0035, disodium pamidronate pentahydrate]
Water content (%, KF) ([1]; after storage for 1 week at 25°C/60%RH (longterm stability condition), listed as 0035): 24.40%
Water content (%, KF) ([1]; after storage for 1 week at 30°C/60%RH (intermediate term stability condition), listed as 0035): 24.39%
Water content (%, KF) ([1]; after storage for 1 week at 40°C/75%RH (accelerated stability condition), listed as 0035): 24.27%
Water content (%, KF) ([1]; initial, before storage, listed as 0035): 24.38%

Compound: NCCC(O)(P(=O)([O-])O)P(=O)([O-])O.O.O.O.O.O.[Na+].[Na+] [Lot 0034, disodium pamidronate pentahydrate]
Water content (%, KF) ([1]; after storage for 1 week at 25°C/60%RH (longterm stability condition), listed as 0034): 24.37%
Water content (%, KF) ([1]; after storage for 1 week at 30°C/60%RH (intermediate term stability condition), listed as 0034): 24.38%
Water content (%, KF) ([1]; after storage for 1 week at 40°C/75%RH (accelerated stability condition), listed as 0034): 24.43%
Water content (%, KF) ([1]; initial, before storage, listed as 0034): 24.55%

Next, values leading:

Water content (%, KF) ([1]; after storage for 1 week at 25°C/60%RH (longterm stability condition), listed as 0036): 24.32%
Water content (%, KF) ([1]; after storage for 1 week at 30°C/60%RH (intermediate term stability condition), listed as 0036): 24.35%
Water content (%, KF) ([1]; after storage for 1 week at 40°C/75%RH (accelerated stability condition), listed as 0036): 24.39%
Water content (%, KF) ([1]; initial, before storage, listed as 0036): 24.48%
Compound: NCCC(O)(P(=O)([O-])O)P(=O)([O-])O.O.O.O.O.O.[Na+].[Na+] [Lot 0036, disodium pamidronate pentahydrate]

water by KF method ([2]; after 4 hours of storage): 24.7%
water by KF method ([2]; after 10 hours of storage): 24.4%
water by KF method ([2]; after 38 hours of storage (determined in triplicate)): 24.35% and 24.38% and 24.32%
Stability of the product (loss of water) ([2]; stored at room temperature at reduced pressure (20 millibar)): no loss of water
storage stability ([1]; 1 week at 25°C/60 % RH, 30°C/60 % RH and 40°C/75 % RH): stable
Compound: NCCC(O)(P(=O)([O-])O)P(=O)([O-])O.O.O.O.O.O.[Na+].[Na+] [disodium pamidronate pentahydrate]
